Experiment in all cases: Various human cancer cells-1, 3D culture, WST-8 (Experimental Example 5)
Common to all, as to assay type: cell-based
For orientation: Tetrazolium assays rely on reduction of a dye to a coloured formazan, in cell work by metabolically active cells.

The test system of data set [1] is human alveolar basal epithelial adenocarcinoma-derived cell line A549. Particulars: 4 days; for viability at 5 µM / viability at 10 µM: Homo sapiens, A549, 96 h, read-out: number of viable cells, relative value to control (100%). The source says: (§1) Various human-derived cancer cells were precultured (single layer culture) in respective media shown below. Human uterus cervix cancer-derived cell line HeLa (manufactured by American Type Culture Collection (hereinafter indicated as ATCC), 10% fetal bovine serum (FBS, manufactured by Corning)-containing Dulbecco's Modified Eagle's Medium (hereinafter abbreviated as DMEM) (manufactured by Wako Pure Chemical Industries, Ltd.)), human malignant melanoma-derived cell line A375 (manufactured by ATCC, 10% FBS-containing DMEM), human epithelial-like cell cancer-derived cell line A431 (manufactured by ATCC, 10% FBS and 1% MEM non-essential amino acid solution (MEM Non-Essential Amino Acids solution (hereinafter abbreviated as NEAA) (manufactured by Wako Pure Chemical Industries, Ltd.))-containing Eagle's Minimum Essential Medium (hereinafter abbreviated as EMEM) (manufactured by Wako Pure Chemical Industries, Ltd.)), human stomach adenocarcinoma-derived cell line AGS (manufactured by DS PHARMA BIO MEDICAL, 10% FBS-containing Ham's F-12 (manufactured by Wako Pure Chemical Industries, Ltd.)), human prostate cancer-derived cell line LNCaP clone FGC (manufactured by ATCC, 10% FBS-containing RPMI1640 (manufactured by Wako Pure Chemical Industries, Ltd.)), human colon adenocarcinoma-derived cell line HCT116 (manufactured by DS PHARMA BIO MEDICAL, 10% FBS-containing McCoy's 5A Medium (manufactured by Sigma-Aldrich)), human alveolar basal epithelial adenocarcinoma-derived cell line A549 (manufactured by DS PHARMA BIO MEDICAL, 10% FBS-containing DMEM), human prostate cancer-derived cell DU145 (manufactured by ATCC, 10% FBS-containing EMEM). The above-mentioned cells in the logarithmic growth phase were washed with PBS, a 0.25 w/v % trypsin-1 mmol/L EDTA (ethylenediaminetetraacetic acid) solution (manufactured by Wako Pure Chemical Industries, Ltd.) was added, and adherent cells were detached by incubating at 37° C. for 1-5 min. Each medium was added and the mixture was centrifuged. After resuspension in the same medium, each cell was recovered.
(§2) The aforementioned various cells were suspended in respective deacylated gellan gum-containing or not containing media (deacylated gellan gum concentration was 0.015 w/v %, and 0.020 w/v % for RPMI1640 alone), and seeded in a 96 well low attachment U-bottom plate (manufactured by Corning, deacylated gellan gum-free medium), or a low attachment flat bottom plate (manufactured by Corning, deacylated gellan gum-containing medium) at a cell concentration of 1000-12000 cells/135 μL/well (all 3D culture). After static culture overnight in 37° C., 5% CO2 incubator, a DMSO solution of the compound to be used in the present invention was added to each medium at a final concentration of 5 μM or 10 μM. The amount of each compound solution to be added was 15 μL/well. As a control, a DMSO solution dissolved in a medium was added (DMSO final concentration 0.1%). After continuously culturing in an incubator at 37° C., 5% CO2 for 4 days, WST-8 solution (manufactured by DOJINDO LABORATORIES) was added at 15 μL/well, and the mixture was reacted in the same incubator for 1-2 hr. […] When compared with the compound no-addition (control), one showing a value of not more than 119% as -, one showing a value of not less than 120% as ◯, and one showing a value of not less than 150% as ⊚ are shown in the tenth table.

Data set [2] has as its system human colon adenocarcinoma-derived cell line HCT116. Conditions: 4 days.
Description: as §1, §2

Data set [3] concerns human epithelial-like cell cancer-derived cell line A431. Particulars: 4 days.
Description: as §1, §2

Data set [4] concerns human malignant melanoma-derived cell line A375. Particulars: 4 days; for viability at 5 µM / viability at 10 µM: Homo sapiens, A-375, 96 h, read-out: number of viable cells, relative value to control (100%).
Description: as §1, §2

Data set [5] deals with human prostate cancer-derived cell DU145. Conditions: 4 days; for viability at 5 µM / viability at 10 µM: Homo sapiens, DU-145, 96 h, read-out: number of viable cells, relative value to control (100%).
Description: as §1, §2

Data set [6] deals with human uterus cervix cancer-derived cell line HeLa. Conditions: 4 days.
Description: as §1, §2

Setting [7] is: low attachment U-bottom plate (gellan gum-free), 10 μM.
Setting [8] is: low attachment flat bottom plate (gellan gum medium), 5 μM.
[9] abbreviates: low attachment flat bottom plate (gellan gum medium), 10 μM.
Setting [10] is: low attachment U-bottom plate (gellan gum-free), 5 μM.

The text below walks through data of patent US20200165194A1, “ADDITIVE COMPOSITION FOR CULTURE MEDIUM, ADDITIVE COMPOUND FOR CULTURE MEDIUM, AND METHOD FOR CULTURE OF CELLS OR TISSUE USING SAME” (NISSAN CHEMICAL CORPORATION, priority 2017, published 2020).

The structures appear in SMILES notation. Where two headings read alike, the source gives them in different places. A value given as a limit tells only on which side of the number the result lay.

In the case of `CCC(=NNC(=O)C(CC)Nc1ccccc1)c1ccc(O)c(C)c1O` (centres unmarked) [k-1:H-7], the “number of viable cells, relative value to control (100%)” value in data set [1] (setting [7]) is listed as “◯ (one showing a value of not less than 120% as ◯)”; in data set [1] (setting [8]), “⊙”; in data set [1] (setting [9]) it was “⊙”; in data set [2] (setting [7]) it was “◯ (one showing a value of not less than 120% as ◯)”; in data set [2] (setting [8]), “◯ (one showing a value of not less than 120% as ◯)”; in data set [2] (setting [9]) it was “⊙”. In addition, the “number of viable cells, relative value to control (100%)” value in data set [3] (setting [10]) was “⊙”; in data set [3] (setting [7]), “⊙”; in data set [3] (setting [8]), “⊙”; in data set [3] (setting [9]), “⊙”; in data set [4] (setting [7]), “◯ (one showing a value of not less than 120% as ◯)”; in data set [4] (setting [8]) it was “◯ (one showing a value of not less than 120% as ◯)”. Moreover, the “number of viable cells, relative value to control (100%)” value was “◯ (one showing a value of not less than 120% as ◯)” in data set [5] (setting [10]); “⊙” in data set [5] (setting [7]); “⊙” in data set [5] (setting [8]); “⊙” in data set [5] (setting [9]); “◯ (one showing a value of not less than 120% as ◯)” in data set [6] (setting [9]).

For the molecule `CC/C(=N\NC(=O)Nc1ccccc1)c1ccc(O)c(C)c1O` [k-1:H-10], the viability at 5 µM in data set [1] (setting [10]) was less than 119%; in data set [1] (setting [8]), 120 to 150%; in data set [2] (Homo sapiens, HCT-116, 96 h, low attachment U-bottom plate (gellan gum-free), 5 μM, read-out: number of viable cells, relative value to control (100%)), less than 119%; in data set [3] (Homo sapiens, A-431, 96 h, low attachment U-bottom plate (gellan gum-free), 5 μM, read-out: number of viable cells, relative value to control (100%)), less than 119%; in data set [4] (setting [10]) it was less than 119%; in data set [4] (setting [8]), less than 119%. The viability at 5 µM is 120 to 150% in data set [5] (setting [10]); less than 119% in data set [5] (setting [8]); less than 119% in data set [6] (Homo sapiens, 96 h, low attachment U-bottom plate (gellan gum-free), 5 μM, read-out: number of viable cells, relative value to control (100%)). Also, the viability at 10 µM in data set [1] (setting [7]) was less than 119%; in data set [1] (setting [9]), 120 to 150%; in data set [2] (Homo sapiens, HCT-116, 96 h, low attachment U-bottom plate (gellan gum-free), 10 μM, read-out: number of viable cells, relative value to control (100%)), less than 119%; in data set [3] (Homo sapiens, A-431, 96 h, low attachment U-bottom plate (gellan gum-free), 10 μM, read-out: number of viable cells, relative value to control (100%)), less than 119%; in data set [4] (setting [7]) it was 120 to 150%; in data set [4] (setting [9]), less than 119%. Besides, the viability at 10 µM was less than 119% in data set [5] (setting [7]); 120 to 150% in data set [5] (setting [9]); less than 119% in data set [6] (Homo sapiens, 96 h, low attachment U-bottom plate (gellan gum-free), 10 μM, read-out: number of viable cells, relative value to control (100%)).
